Among the test systems are HS 578T breast; MDA-N; PC-3 prostate; DLD-1 colon; DMS 273 small cell lung; KM20L2 colon; LXFL 529 NSCLC.
Common to all, as to experiment: NCI anticancer screen, dose series, 48 h

Values joined by “and” are separate entries in the source; they are usually repeats but may differ in a detail not shown here. Identical values can stand only once.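 Values below derive from 48-hour exposures of cells grown in 96-well plates, with endpoints linearly interpolated between the two concentrations bracketing the appropriate inhibition level. At the GI50, growth is halved. TGI is the concentration that stops growth completely.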 Bounds are passed on as bounds.

For `COc1cc(-c2nc3ccc(C)cc3[nH]2)ccc1OCC(=O)N=Nc1c(O)[nH]c2ccccc12`, in the assay on HS 578T breast, the GI50 is 2000 nM and the TGI is 4.77 µM.
Turning to `Cc1c(CCCl)c(=O)n2c([nH]c3ccccc32)c1C#N`, the TGI in the assay with HS 578T breast is 4.89 µM; in the assay on MDA-N it was 3.33 µM; with PC-3 prostate, 2.82 µM.
For the molecule `CCN(CC)CCC1CC/C(=C\c2ccc(OC)cc2)C1=O` (configuration not stated), the TGI in the assay with DLD-1 colon is over 100 µM; with DMS 273 small cell lung it was over 100 µM; in the assay on KM20L2 colon, 78.3 µM; in the assay on LXFL 529 NSCLC, over 100 µM.
Turning to `CC(=O)OCC1OC(n2c(-c3ccccc3)cc(-c3ccco3)c(C#N)c2=O)C(OC(C)=O)C(OC(C)=O)C1OC(C)=O` (configuration not stated), the GI50 is > 53.1 µM and 25.8 µM in the assay on DLD-1 colon; 50.9 µM in the assay with KM20L2 colon. Besides, the TGI with DLD-1 colon, in the assay on DMS 273 small cell lung, with KM20L2 colon and with LXFL 529 NSCLC was over 100 µM each time.
On to `COC1=CC23C=CC1[C@@H](c1ccccc1)C2=C(C)C(=O)N3C(=O)NC1CCCCC1` (some centres not stated), for which the TGI in the assay on KM20L2 colon was determined as 50.7 µM.
For the molecule `CN(C(=O)c1ccc(Cl)s1)C(=S)N(C)C(=O)c1ccc(Cl)s1`, the TGI in the assay on HS 578T breast, in the assay on MDA-N and in the assay on PC-3 prostate was over 10 µM each time.
Regarding `CC[N+](CCCCCCCCCC[N+](CC)(c1ccccn1)c1ccccn1)(c1ccccn1)c1ccccn1`, in the assay on PC-3 prostate, the GI50 was 0.459 µM and the TGI stood at 11.2 µM.
Regarding `CC1(C)C=CC[C@]2(C)[C@H]3CC[C@@H]4[C@H]5[C@H](C(=O)/C=C/c6cccnc6)CC[C@]5(CO)CC[C@@]4(C)[C@]3(C)CC[C@@H]12`, in the assay on HS 578T breast, the GI50 was 1510 nM and the TGI was 3.89 µM. For the same molecule, in the assay with PC-3 prostate, the GI50 was 0.505 µM and the TGI is 1.91 µM.
Regarding `CC(=O)NC(CCCCNC(=O)OCc1ccccc1)C(=O)NCc1ccccc1` (configuration not stated), the TGI with DLD-1 colon, in the assay with DMS 273 small cell lung, in the assay with KM20L2 colon and with LXFL 529 NSCLC was over 100 µM each time.
Consider `COc1ccc(-c2c(C3=NCCN3)nnn2-c2ccccc2)cc1`, for which the TGI with DLD-1 colon, in the assay on DMS 273 small cell lung, in the assay with KM20L2 colon and in the assay on LXFL 529 NSCLC was over 100 µM in each case.
For the molecule `Cc1cc2nc3c(C(OC4OC(CO)C(O)C(O)C4O)C(O)CO)nn(-c4ccccc4)c3nc2cc1C` (configuration not stated), the TGI in the assay on DLD-1 colon and in the assay on KM20L2 colon was over 100 µM each time.
As to `COc1ccc2c(c1)sc1nc(-c3ccccc3)c(-c3ccsc3)n12`, in the assay with HS 578T breast, the GI50 is over 100000 nM and the TGI was over 100 µM. In addition, in the assay with PC-3 prostate, the GI50 was 4.02 µM and the TGI was over 100 µM.
On to `Cc1cc(/C=C2\SC(=Nc3ccccc3)N(C3CCCC3)C2=O)c(C)n1-c1ccc(Cl)cc1`, for which, in the assay with HS 578T breast, the GI50 was over 100000 nM and the TGI is over 100 µM. In the assay with PC-3 prostate, the GI50 was 75.5 µM and the TGI is over 100 µM.
In the case of `S=C(Nc1ccc(-c2nc3ccccc3[nH]2)cc1)NC1CCCCC1`, the results for the GI50 in the assay on HS 578T breast and in the assay with PC-3 prostate were 26100 nM and 36.6 µM, respectively.
Regarding `C=CCNC(=S)N1CC(C)C(=O)Nc2ccccc21` (configuration not stated), the TGI in the assay with DMS 273 small cell lung, in the assay with KM20L2 colon and in the assay on LXFL 529 NSCLC was over 100 µM in each case.
As to `CC(=O)O[C@H]1C(N(C)C(=O)c2ccccc2)CC[C@]2(C)C3CC[C@@]4(C)C(CC(O)[C@@H]4C(C)N(C)C)[C@@H]3CCC12` (some centres not stated), the TGI with DLD-1 colon, with DMS 273 small cell lung, with KM20L2 colon and in the assay with LXFL 529 NSCLC was over 100 µM each time.
With `Oc1ccc(Br)cc1Sc1cc(Br)ccc1O`, in the assay with HS 578T breast, the GI50 was 4280 nM and the TGI is 25.8 µM. Further, in the assay on PC-3 prostate, the GI50 was 10.6 µM and the TGI is 29.4 µM.
Taken in the same sequence, the figures for `COc1cc(-c2cnn(C)c2)ccc1Nc1ncc2ccnc(N[C@@H](C)C(C)(C)C)c2n1` were over 79000 nM, over 100 µM, over 96.1 µM and over 100 µM.
For the molecule `Nc1nc(-c2cccc([N+](=O)[O-])c2)c(Br)c(=O)[nH]1`, the TGI in the assay on HS 578T breast and in the assay on PC-3 prostate was over 100 µM in each case.
Regarding `CCN(CC)CCNc1c(OC)cc(C)c2sc3ccccc3c(=O)c12`, the figures for the TGI in the assay with HS 578T breast and in the assay with PC-3 prostate were 24.8 µM and 20.8 µM, respectively.
For `Cc1ccc(C(=O)c2oc3ccc4c(C)cc(=O)oc4c3c2C)cc1`, the values for the GI50 in the assay on HS 578T breast and with PC-3 prostate were 19400 nM and 5.64 µM, respectively. Besides, the TGI in the assay on HS 578T breast and in the assay on PC-3 prostate was over 100 µM throughout.
`O=c1cc(-c2ccccc2)[nH]c2cccc(S)c12`: the TGI with HS 578T breast and in the assay with PC-3 prostate was over 100 µM in each case.
Turning to `CCN(CC)CCCCC1CCN(CC(=O)N2CC(C)C(=O)Nc3ccccc32)CC1` (configuration not stated), the TGI in the assay with DLD-1 colon, with DMS 273 small cell lung, in the assay on KM20L2 colon and in the assay with LXFL 529 NSCLC was over 100 µM in each case.
In the case of `COc1cc2nc(-c3ccc(C(F)(F)F)cc3)cc(OCCCN3CCOCC3)c2cc1OC`, in the assay with HS 578T breast, the GI50 was 2250 nM and the TGI is 9.24 µM. Also, in the assay with PC-3 prostate, the GI50 is 2.19 µM and the TGI came out at 16.5 µM.
On to `C=CCn1c(C)nc2cc(Nc3nc(Nc4ccc5nc(C)n(CC=C)c5c4)c4ccccc4n3)ccc21`, for which, in the assay with HS 578T breast, the GI50 was 2020 nM and the TGI is 5.22 µM.
As to `O=c1oc2ccccc2c(O)c1/C=N\c1nc(-c2ccccc2)cs1`, the TGI with HS 578T breast was found to be 89.7 µM; in the assay with MDA-N it was 16 µM; in the assay on PC-3 prostate, 31.2 µM.
`CC(=O)NC1=N/C(=C/c2cc([N+](=O)[O-])ccc2O)CN1C`: the TGI with MDA-N and in the assay on PC-3 prostate was over 100 µM throughout.
As for `CCOc1ccccc1NC(=O)/C=C1\NC(=O)CS1`, the TGI with DLD-1 colon, in the assay with DMS 273 small cell lung, in the assay on KM20L2 colon and in the assay with LXFL 529 NSCLC was over 100 µM each time.
In the case of `COc1cc(OC)c(/C=C/c2ccc3ccccc3[n+]2C)c(OC)c1`, in the assay on HS 578T breast, the GI50 was 638 nM and the TGI worked out at 19.3 µM. Besides, in the assay with PC-3 prostate, the GI50 was 1.82 µM and the TGI is 17.3 µM.
On to `COc1cc([C@H](C)c2ccc3ccccc3c2)cc(OC)c1OC`, for which, in the assay on HS 578T breast, the GI50 was 303 nM and the TGI was over 100 µM. In addition, in the assay with PC-3 prostate, the GI50 is 0.346 µM and the TGI is over 100 µM.
